How the values were obtained:
human hepatoma G2 cells = assay: Cytotoxicity assay (XTT colorimetric), Hep G2; assay type: cell-based; conditions: Homo sapiens, HepG2; 48 h of drug exposure
rat glioma C6 cells = assay: Cytotoxicity assay (XTT colorimetric), C6 cells; assay type: cell-based; conditions: Rattus norvegicus, C6; 48 h of drug exposure
[1] = tested on: hepatitis B virus transfected hepatoma cell lines, HepG 2.2.15 cells; assay: Cytotoxicity assay, 2.2.15 cells; assay type: cell-based, human; conditions: Homo sapiens, HepG2.2.15; 48 h of drug exposure
[2] = tested on: transcriptional activity of hTERT; assay: SEAP reporter assay of hTERT expression, PhTERT-SEAP (hTERT-BJ1); assay type: cell-based, human; conditions: PhTERT-SEAP (hTERT-BJ1)
Method in brief: (§1)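 SEAP activity, read as rate of 405 nm absorbance rise with 12 mM p-nitrophenyl phosphate in diethanolamine/MgCl2/homoarginine buffer after 65 °C, 10 min heat inactivation, reports hTERT or CMV promoter activity. G418-selected stable H1299 or hTERT-BJ1 reporter lines were exposed to drug for 24 h.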

[3] = tested on: transcriptional activity of hTERT; assay: SEAP reporter assay of hTERT expression, PhTERT-SEAP (H1299); assay type: cell-based, human; conditions: PhTERT-SEAP(hTERT-H1299)
Method in brief: as §1

[4] = MTT relative viability, PhTERT-SEAP (H1299) cells; conditions: human
Description: The tetrazolium reagent (MTT; 3-(4,5-di-methylthiazol)-2,5-diphenyl tetrazolium bromide, USB) was designed to yield a colored formazan upon metabolic reduction by viable cells. Approximately […] cells were plated onto each well of a 96-well plate and incubated in 5% CO2 at 37° C. for 24 h. To assess the in vitro cytotoxicity, each compound was dissolved in DMSO and prepared immediately before the experiments and was diluted into the complete medium before addition to cell cultures. Test compounds were then added to the culture medium for designated various concentrations. After 48 h, an amount of 25 μL of MTT was added to each well, and the samples were incubated at 37° C. for 4 h. A 100 μL solution of lysis buffer containing 20% SDS and 50% N,N-dimethylformamide was added to each well and incubated at 37° C. for another 16 h. The absorbency at 550 nm was measured using an ELISA reader.
Non small lung cancer cells H1299 (telomerase positive) were grown in RPMI 1640 media supplemented with 10% fetal bovine serum, 100 units/mL penicillin and 100 mg/mL streptomycin in a humidified atmosphere with 5% CO2 at 37° C. The hTERT immortalized hTERT-BJ1 (BD Biosciences Clontech)^39 were grown in DMEM media supplemented with 10% fetal calf serum, 100 units/mL penicillin and 100 mg/mL streptomycin, 1 mM sodium pyruvate, and 4 mM I-arginine in a humidified atmosphere with 5% CO2 at 37° C. Culture media were changed every 3 days. […] The stable clones derived from H1299 or hTERT-BJ1 were cultured using conditions that are similar to their parental cells.

[5] = MTT relative viability, PhTERT-SEAP (hTERT-BJ1) cells; conditions: human, hTERT-BJ1 cells, stable PhTERT-SEAP reporter clone

O=C(Cc1ccc(F)cc1)Nc1ccc(NC(=O)Cc2ccc(F)cc2)c2c1C(=O)c1ccccc1C2=O [VI32, 1,4-Bis(4-fluorophenylacetamido)-9,10-anthracenedione]
IC50 (human hepatoma G2 cells): > 20 µM | IC50 (rat glioma C6 cells): > 20 µM | IC50 [1]: > 20 µM | SEAP/vibility ([2]; 1.9 μM): 0.84 | SEAP/vibility ([2]; 19 μM): 1.02 | SEAP/vibility ([2]; 195 μM): 1.01 | activity at 1.9 µM ([2]; Homo sapiens, 1.9 μM, read-out: Relative SEAP activity (%)): 90 ± 18.4% | activity at 19 µM ([2]; Homo sapiens, 19 μM, read-out: Relative SEAP activity (%)): 102 ± 20% | activity at 195 µM ([2]; Homo sapiens, 195 μM, read-out: Relative SEAP activity (%)): 97 ± 11.6% | SEAP/vibility ([3]; 1.9 μM): 1.00 | SEAP/vibility ([3]; 19 μM): 1.03 | SEAP/vibility ([3]; 195 μM): 1.39 | activity at 1.9 µM ([3]; Homo sapiens, NCI-H1299, 1.9 μM, read-out: Relative SEAP activity (%)): 109 ± 10.8% | activity at 19 µM ([3]; Homo sapiens, NCI-H1299, 19 μM, read-out: Relative SEAP activity (%)): 109 ± 5.8% | activity at 195 µM ([3]; Homo sapiens, NCI-H1299, 195 μM, read-out: Relative SEAP activity (%)): 109 ± 6.6% | melting point: 228 to 230 °C | viability at 48 h, 1.9 µM [4]: 108 ± 8.8% | viability at 48 h, 19 µM [4]: 107 ± 7.5% | viability at 48 h, 195 µM [4]: 78 ± 8% | viability at 48 h, 1.9 µM [5]: 107 ± 7.2% | viability at 48 h, 19 µM [5]: 100 ± 6.3% | viability at 48 h, 195 µM [5]: 96 ± 4.1%

CCN(CC)CC(=O)Nc1ccc(NC(=O)CN(CC)CC)c2c1C(=O)c1ccccc1C2=O [VI33, 1,4-Bis[2-(diethylamino)acetamido]-9,10-anthracenedione]
IC50 (human hepatoma G2 cells): 0.65 µM | IC50 (rat glioma C6 cells): 4.46 µM | IC50 [1]: 13 µM | SEAP/vibility ([2]; 2.1 μM): 1.06 | SEAP/vibility ([2]; 21 μM): 1.40 | SEAP/vibility ([2]; 215 μM): 2.61 | activity at 2.1 µM ([2]; Homo sapiens, 2.1 μM, read-out: Relative SEAP activity (%)): 111 ± 24.4% | activity at 21 µM ([2]; Homo sapiens, 21 μM, read-out: Relative SEAP activity (%)): 120 ± 25.6% | activity at 215 µM ([2]; Homo sapiens, 215 μM, read-out: Relative SEAP activity (%)): 83 ± 19% | SEAP/vibility ([3]; 2.1 μM): 0.94 | SEAP/vibility ([3]; 21 μM): 0.99 | SEAP/vibility ([3]; 215 μM): 1.11 | activity at 2.1 µM ([3]; Homo sapiens, NCI-H1299, 2.1 μM, read-out: Relative SEAP activity (%)): 98 ± 3.3% | activity at 21 µM ([3]; Homo sapiens, NCI-H1299, 21 μM, read-out: Relative SEAP activity (%)): 86 ± 7.4% | activity at 215 µM ([3]; Homo sapiens, NCI-H1299, 215 μM, read-out: Relative SEAP activity (%)): 48 ± 2.3% | melting point: 85 to 86 °C | viability at 48 h, 2.1 µM [4]: 105 ± 4.9% | viability at 48 h, 21 µM [4]: 87 ± 3.9% | viability at 48 h, 215 µM [4]: 44 ± 2.7% | viability at 48 h, 2.1 µM [5]: 105 ± 2.8% | viability at 48 h, 21 µM [5]: 86 ± 3.5% | viability at 48 h, 215 µM [5]: 32 ± 13.1%

CCN(CC)C(C)C(=O)Nc1ccc(NC(=O)C(C)N(CC)CC)c2c1C(=O)c1ccccc1C2=O (stereo not drawn) [VI35, 1,4-Bis[2-(diethylamino)propionamido]-9,10-anthracenedione]
IC50 (human hepatoma G2 cells): 2.02 µM | IC50 (rat glioma C6 cells): 18.1 µM | IC50 [1]: 8.57 µM | SEAP/vibility ([2]; 2.0 μM): 0.41 | SEAP/vibility ([2]; 20 μM): 0.94 | SEAP/vibility ([2]; 203 μM): 0.61 | activity at 2 µM ([2]; Homo sapiens, 2.0 μM, read-out: Relative SEAP activity (%)): 40 ± 14.5% | activity at 20 µM ([2]; Homo sapiens, 20 μM, read-out: Relative SEAP activity (%)): 49 ± 9.3% | activity at 203 µM ([2]; Homo sapiens, 203 μM, read-out: Relative SEAP activity (%)): 22 ± 6.6% | SEAP/vibility ([3]; 2.0 μM): 1.00 | SEAP/vibility ([3]; 20 μM): 1.35 | SEAP/vibility ([3]; 203 μM): 0.98 | activity at 2 µM ([3]; Homo sapiens, NCI-H1299, 2.0 μM, read-out: Relative SEAP activity (%)): 96 ± 14.3% | activity at 20 µM ([3]; Homo sapiens, NCI-H1299, 20 μM, read-out: Relative SEAP activity (%)): 104 ± 6% | activity at 203 µM ([3]; Homo sapiens, NCI-H1299, 203 μM, read-out: Relative SEAP activity (%)): 73 ± 11.7% | melting point: 175 to 177 °C | viability at 48 h, 2 µM [4]: 96 ± 7.9% | viability at 48 h, 20 µM [4]: 77 ± 7.2% | viability at 48 h, 203 µM [4]: 75 ± 4.6% | viability at 48 h, 2 µM [5]: 97 ± 3.9% | viability at 48 h, 20 µM [5]: 52 ± 7.2% | viability at 48 h, 203 µM [5]: 36 ± 5.8%
